{
  "source": "patent US20190151329A1",
  "about": "“THERAPEUTIC USE OF DIAMINOPHENOTHIAZINES” (WisTa Laboratories Ltd., priority 2007, published 2019)",
  "origin": "cited, not measured here",
  "key": {"[1]": {"details": "cited from earlier work; for Blood Ox-MT concentration: human whole blood"}, "[2]": {"details": "cited from earlier work"}, "[3]": {"details": "repeat dose 15 mg/24 hr, day 14"}, "[4]": {"details": "repeat dose 15 mg/24 hr, day 21"}, "[5]": {"details": "repeat dose 300 mg/24 hr, day 7"}, "[6]": {"details": "repeat dose 300 mg/24 hr, day 14"}, "[7]": {"details": "repeat dose 300 mg/24 hr, day 21"}},
  "note": "Like-named read-outs stand apart in the source and are kept apart here.",
  "data": [
    {"smiles": "CN(C)c1ccc2nc3ccc(=[N+](C)C)cc-3sc2c1", "note": "[MTC, methylthioninium chloride]", "values": [
      {"measurement": "Blood Ox-MT concentration", "setting": "[1]; 100 mg MTC IV, 0.83 hr", "value": 0.39, "unit": "µmol/L"},
      {"measurement": "Blood Ox-MT concentration", "setting": "[1]; 100 mg MTC IV, 1.01 hr", "value": 0.41, "unit": "µmol/L"},
      {"measurement": "Blood Ox-MT concentration", "setting": "[1]; 100 mg MTC IV, 1.99 hr", "value": 0.26, "unit": "µmol/L"},
      {"measurement": "Blood Ox-MT concentration", "setting": "[1]; 100 mg MTC IV, 4 hr", "value": 0.18, "unit": "µmol/L"},
      {"measurement": "Blood Ox-MT concentration", "setting": "[1]; 100 mg MTC oral (mean of with and without Mesna), 0 hr", "value": 0, "unit": "µmol/L"},
      {"measurement": "Blood Ox-MT concentration", "setting": "[1]; 100 mg MTC oral (mean of with and without Mesna), 0.09 hr", "value": 0.00064, "unit": "µmol/L"},
      {"measurement": "Blood Ox-MT concentration", "setting": "[1]; 100 mg MTC oral (mean of with and without Mesna), 0.15 hr", "value": 0.0011, "unit": "µmol/L"},
      {"measurement": "Blood Ox-MT concentration", "setting": "[1]; 100 mg MTC oral (mean of with and without Mesna), 0.24 hr", "value": 0.0064, "unit": "µmol/L"},
      {"measurement": "Blood Ox-MT concentration", "setting": "[1]; 100 mg MTC oral (mean of with and without Mesna), 0.33 hr", "value": 0.017, "unit": "µmol/L"},
      {"measurement": "Blood Ox-MT concentration", "setting": "[1]; 100 mg MTC oral (mean of with and without Mesna), 0.5 hr", "value": 0.041, "unit": "µmol/L"},
      {"measurement": "Blood Ox-MT concentration", "setting": "[1]; 100 mg MTC oral (mean of with and without Mesna), 0.83 hr", "value": 0.055, "unit": "µmol/L"},
      {"measurement": "Blood Ox-MT concentration", "setting": "[1]; 100 mg MTC oral (mean of with and without Mesna), 1.01 hr", "value": 0.064, "unit": "µmol/L"},
      {"measurement": "Blood Ox-MT concentration", "setting": "[1]; 100 mg MTC oral (mean of with and without Mesna), 1.99 hr", "value": 0.069, "unit": "µmol/L"},
      {"measurement": "Blood Ox-MT concentration", "setting": "[1]; 100 mg MTC oral (mean of with and without Mesna), 4 hr", "value": 0.038, "unit": "µmol/L"},
      {"measurement": "% of dose excreted in urine at 24 hr", "setting": "[1]; human, 100 mg MTC, IV", "value": "28.6 % of dose"},
      {"measurement": "AUC", "setting": "[1]; human, 100 mg MTC, IV", "value": 0.134, "unit": "µmol/min/mL"},
      {"measurement": "Cl (clearance)", "setting": "[1]; human, 100 mg MTC, IV", "value": 3, "unit": "L/h"},
      {"measurement": "Estimated elimination T½: blood (1-4 hr)", "setting": "[1]; human, 100 mg MTC, IV", "value": 5.25, "unit": "h"},
      {"measurement": "% of dose excreted in urine at 24 hr", "setting": "[1]; human, 100 mg MTC, Oral", "value": "18.6 % of dose"},
      {"measurement": "AUC", "setting": "[1]; human, 100 mg MTC, Oral", "value": 0.011, "unit": "µmol/min/mL"},
      {"measurement": "Estimated elimination T½: urine (4-24 hr)", "setting": "[1]; human, 100 mg MTC, Oral", "value": 6.6, "unit": "h"},
      {"measurement": "fraction of total MT excreted in the urine in the L-MB form", "setting": "[1]; human, did not differ between oral and IV dosing", "value": "approximately ⅓"},
      {"measurement": "24 hr urinary excretion, L-MT (summary line)", "setting": "[2]; repeat dose 15 mg/24 hr", "value": 7.2, "unit": "mg"},
      {"measurement": "24 hr urinary excretion, Ox-MT (summary line)", "setting": "[2]; repeat dose 15 mg/24 hr", "value": 5.8, "unit": "mg"},
      {"measurement": "% of total urinary excretion, L-MT", "setting": "[2]; repeat dose 15 mg/24 hr", "value": 55.3, "unit": "%"},
      {"measurement": "% of total urinary excretion, Ox-MT", "setting": "[2]; repeat dose 15 mg/24 hr", "value": 44.8, "unit": "%"},
      {"measurement": "F (apparent bioavailability), L-MT", "setting": "[2]; repeat dose 15 mg/24 hr", "value": 0.48},
      {"measurement": "F (apparent bioavailability), Ox-MT", "setting": "[2]; repeat dose 15 mg/24 hr", "value": 0.39},
      {"measurement": "24-hr urinary excretion, L-MT", "setting": "[2]; repeat dose 15 mg/24 hr, day 7", "value": 7.2, "unit": "mg"},
      {"measurement": "24-hr urinary excretion, Ox-MT", "setting": "[2]; repeat dose 15 mg/24 hr, day 7", "value": 6.1, "unit": "mg"},
      {"measurement": "24-hr urinary excretion, L-MT", "setting": "[2]; [3]", "value": 8, "unit": "mg"},
      {"measurement": "24-hr urinary excretion, Ox-MT", "setting": "[2]; [3]", "value": 5.3, "unit": "mg"},
      {"measurement": "24-hr urinary excretion, L-MT", "setting": "[2]; [4]", "value": 6.4, "unit": "mg"},
      {"measurement": "24-hr urinary excretion, Ox-MT", "setting": "[2]; [4]", "value": 6.1, "unit": "mg"},
      {"measurement": "24 hr urinary excretion, L-MT (summary line)", "setting": "[2]; repeat dose 300 mg/24 hr", "value": 69.2, "unit": "mg"},
      {"measurement": "24 hr urinary excretion, Ox-MT (summary line)", "setting": "[2]; repeat dose 300 mg/24 hr", "value": 43.4, "unit": "mg"},
      {"measurement": "% of total urinary excretion, L-MT", "setting": "[2]; repeat dose 300 mg/24 hr", "value": 61.5, "unit": "%"},
      {"measurement": "% of total urinary excretion, Ox-MT", "setting": "[2]; repeat dose 300 mg/24 hr", "value": 38.6, "unit": "%"},
      {"measurement": "F (apparent bioavailability), L-MT", "setting": "[2]; repeat dose 300 mg/24 hr", "value": 0.23},
      {"measurement": "F (apparent bioavailability), Ox-MT", "setting": "[2]; repeat dose 300 mg/24 hr", "value": 0.14},
      {"measurement": "24-hr urinary excretion, L-MT", "setting": "[2]; [5]", "value": 75.6, "unit": "mg"},
      {"measurement": "24-hr urinary excretion, Ox-MT", "setting": "[2]; [5]", "value": 43.9, "unit": "mg"},
      {"measurement": "24-hr urinary excretion, L-MT", "setting": "[2]; [6]", "value": 71.6, "unit": "mg"},
      {"measurement": "24-hr urinary excretion, Ox-MT", "setting": "[2]; [6]", "value": 41.1, "unit": "mg"},
      {"measurement": "24-hr urinary excretion, L-MT", "setting": "[2]; [7]", "value": 60.4, "unit": "mg"},
      {"measurement": "24-hr urinary excretion, Ox-MT", "setting": "[2]; [7]", "value": 45.2, "unit": "mg"},
      {"measurement": "% of total urinary excretion, L-MT", "setting": "[2]; single dose 25 mg", "value": 15.8, "unit": "%"},
      {"measurement": "% of total urinary excretion, Ox-MT", "setting": "[2]; single dose 25 mg", "value": 84.2, "unit": "%"},
      {"measurement": "F (apparent bioavailability), L-MT", "setting": "[2]; single dose 25 mg", "value": 0.11},
      {"measurement": "F (apparent bioavailability), Ox-MT", "setting": "[2]; single dose 25 mg", "value": 0.60},
      {"measurement": "F (apparent bioavailability), Total-MT", "setting": "[2]; single dose 25 mg", "value": 0.71},
      {"measurement": "urinary excretion, L-MT", "setting": "[2]; single dose 25 mg", "value": 2.8, "unit": "mg"},
      {"measurement": "urinary excretion, Ox-MT", "setting": "[2]; single dose 25 mg", "value": 14.9, "unit": "mg"},
      {"measurement": "urinary excretion, Total-MT", "setting": "[2]; single dose 25 mg", "value": 17.7, "unit": "mg"},
      {"measurement": "% of total urinary excretion, L-MT", "setting": "[2]; single dose 50 mg", "value": 8.8, "unit": "%"},
      {"measurement": "% of total urinary excretion, Ox-MT", "setting": "[2]; single dose 50 mg", "value": 91.2, "unit": "%"},
      {"measurement": "F (apparent bioavailability), L-MT", "setting": "[2]; single dose 50 mg", "value": 0.054},
      {"measurement": "F (apparent bioavailability), Ox-MT", "setting": "[2]; single dose 50 mg", "value": 0.56},
      {"measurement": "F (apparent bioavailability), Total-MT", "setting": "[2]; single dose 50 mg", "value": 0.62},
      {"measurement": "urinary excretion, L-MT", "setting": "[2]; single dose 50 mg", "value": 2.7, "unit": "mg"},
      {"measurement": "urinary excretion, Ox-MT", "setting": "[2]; single dose 50 mg", "value": 28.1, "unit": "mg"},
      {"measurement": "urinary excretion, Total-MT", "setting": "[2]; single dose 50 mg", "value": 30.8, "unit": "mg"},
      {"measurement": "% of total urinary excretion, L-MT", "setting": "[2]; single dose 100 mg", "value": 15.2, "unit": "%"},
      {"measurement": "% of total urinary excretion, Ox-MT", "setting": "[2]; single dose 100 mg", "value": 84.8, "unit": "%"},
      {"measurement": "F (apparent bioavailability), L-MT", "setting": "[2]; single dose 100 mg", "value": 0.060},
      {"measurement": "F (apparent bioavailability), Ox-MT", "setting": "[2]; single dose 100 mg", "value": 0.34},
      {"measurement": "F (apparent bioavailability), Total-MT", "setting": "[2]; single dose 100 mg", "value": 0.40},
      {"measurement": "urinary excretion, L-MT", "setting": "[2]; single dose 100 mg", "value": 6, "unit": "mg"},
      {"measurement": "urinary excretion, Ox-MT", "setting": "[2]; single dose 100 mg", "value": 33.5, "unit": "mg"},
      {"measurement": "urinary excretion, Total-MT", "setting": "[2]; single dose 100 mg", "value": 39.5, "unit": "mg"}
    ]}
  ]
}
